Reference: patent US11697648B2, “Fused pyrimidine pyridinone compounds as JAK inhibitors” (THERAVANCE BIOPHARMA R&D IP, LLC, priority 2019, dated 2023)

Assays:
[1] = test system: Caco-2 cell monolayers; test: Caco-2 permeation assay; format: in vitro ADME; conditions: 5 μM, A-B direction, with Verapamil (25 μM)
Method: Assay 4: Caco-2 Permeation Assay
The Caco-2 permeation assay was performed to model the ability of test compounds to pass through the intestine and get into the blood stream after oral administration. The rate at which test compounds in solution permeate a cell monolayer designed to mimic the tight junction of human small intestinal monolayers was determined.
CacoReady 24-well transwell plates were obtained from ADMEcell (Alameda, Calif.). The compounds were evaluated at a concentration of 5 μM from 10 mM DMSO stock solutions in duplicate (n=2). The passive permeability of the compounds tested was evaluated using Caco-2 cell monolayers along with Verapamil (25 μM) to inhibit P-gp transport proteins in the apical to basolateral (A-B) direction. The experiment was conducted in a 37° C., 5% CO2 incubator. Caco-2 culture media consisted of standard filtered DMEM, FCS 10%, L-Glutamine 1% and PenStrep 1%. Basal assay plate was prepared by adding 750 μL of transport buffer to A-B wells. A CacoReady™ plate was prepared by removing the Caco-2 media from the apical wells and replacing with fresh transport media (200 μL repeated for a total of 3 washes). Blank media (200 μL) was then replaced with diluted compound for A-B wells. To begin the incubation, the basal plate was removed from the incubator and the apical section was added on top of it. Samples (40 μL) were collected from the apical and basal compartments for time zero (t0). Samples were collected again after 120 minutes (t120) from the apical and basal compartments. All samples were diluted and prepared for bioanalysis by LC-MS/MS. The permeation coefficient (Kp, mean A to B+ Verapamil Papparent) in cm/sec was calculated as dQ (flux)/(dt×Area×concentration).
In this assay, a Kp value less than about 5×10^−6 cm/sec is considered favorable to minimize systemic exposure and target the colon. A Kp value less than about 10×10^−6 cm/sec may also be sufficient to minimize systemic exposure and target the colon.

[2] = test system: IL-2 stimulated STAT5 phosphorylation in Tall-1 human T cell line (JAK3); test: Cellular JAK3 potency assay: inhibition of IL-2 stimulated pSTAT5 in Tall-1 T cells; format: cell-based; conditions: IL-2 stimulated pSTAT5, Tall-1 T cells
In short: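 Tall-1 cells, 45,000 per well, preincubated 1 hour with compound at 37 °C, then stimulated 30 minutes with IL-2 at 300 ng/ml final. pSTAT5 (Tyr694/699) in lysates quantified by AlphaLISA SureFire Ultra. pIC50 derived from inhibition curves, given as mean with SD.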

[3] = target: JAK1 (Homo sapiens (Human), UniProt P23458); test: Biochemical JAK1 kinase assay (LanthaScreen)
JAK1, sequence (P23458 whole entry): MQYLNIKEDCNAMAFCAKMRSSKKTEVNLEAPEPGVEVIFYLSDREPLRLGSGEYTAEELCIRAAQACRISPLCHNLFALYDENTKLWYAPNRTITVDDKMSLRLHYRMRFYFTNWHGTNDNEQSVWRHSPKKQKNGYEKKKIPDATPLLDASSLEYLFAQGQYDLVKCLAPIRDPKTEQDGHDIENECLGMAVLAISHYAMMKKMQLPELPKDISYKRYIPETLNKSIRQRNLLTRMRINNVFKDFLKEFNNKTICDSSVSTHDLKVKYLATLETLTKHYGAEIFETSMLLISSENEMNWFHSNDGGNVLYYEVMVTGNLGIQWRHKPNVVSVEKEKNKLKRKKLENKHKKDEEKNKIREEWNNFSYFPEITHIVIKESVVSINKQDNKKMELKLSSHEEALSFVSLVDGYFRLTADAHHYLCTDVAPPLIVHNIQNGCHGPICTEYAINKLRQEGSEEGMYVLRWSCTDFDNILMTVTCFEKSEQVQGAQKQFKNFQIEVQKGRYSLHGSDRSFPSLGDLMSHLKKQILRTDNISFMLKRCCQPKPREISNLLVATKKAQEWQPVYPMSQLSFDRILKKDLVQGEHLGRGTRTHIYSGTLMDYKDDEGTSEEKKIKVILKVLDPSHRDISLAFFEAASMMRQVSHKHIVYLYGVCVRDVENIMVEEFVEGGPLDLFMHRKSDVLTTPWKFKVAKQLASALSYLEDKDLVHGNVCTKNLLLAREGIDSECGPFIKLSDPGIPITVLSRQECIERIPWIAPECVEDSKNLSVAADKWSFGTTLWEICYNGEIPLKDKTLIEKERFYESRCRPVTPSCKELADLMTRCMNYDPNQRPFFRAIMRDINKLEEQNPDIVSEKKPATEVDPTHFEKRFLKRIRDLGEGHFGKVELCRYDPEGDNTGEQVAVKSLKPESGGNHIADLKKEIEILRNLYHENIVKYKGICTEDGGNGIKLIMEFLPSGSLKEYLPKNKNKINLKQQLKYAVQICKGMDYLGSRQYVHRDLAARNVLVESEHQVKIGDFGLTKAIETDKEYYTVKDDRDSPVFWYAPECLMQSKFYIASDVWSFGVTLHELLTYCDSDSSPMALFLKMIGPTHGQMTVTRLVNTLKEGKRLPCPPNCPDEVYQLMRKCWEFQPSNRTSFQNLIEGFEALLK
In short: (§1)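 GST-JAK + GFP-STAT1 peptide, HEPES pH 7.5/MgCl2/EGTA/Brij-35 buffer; cpd preincubation 1 h RT; ATP start, 1 h RT; stop with 10 mM EDTA + 2 nM Tb-anti-pSTAT1; TR-FRET 520/495. 4-parameter IC50 → pKi (Cheng-Prusoff).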

[4] = target: JAK3 (Homo sapiens (Human), UniProt P52333); test: Biochemical JAK3 kinase assay (LanthaScreen); conditions: for JAK3 (pKi)-JAK1 (pKi): selectivity JAK3 over JAK1, difference of pKi
JAK3, sequence (P52333 whole entry): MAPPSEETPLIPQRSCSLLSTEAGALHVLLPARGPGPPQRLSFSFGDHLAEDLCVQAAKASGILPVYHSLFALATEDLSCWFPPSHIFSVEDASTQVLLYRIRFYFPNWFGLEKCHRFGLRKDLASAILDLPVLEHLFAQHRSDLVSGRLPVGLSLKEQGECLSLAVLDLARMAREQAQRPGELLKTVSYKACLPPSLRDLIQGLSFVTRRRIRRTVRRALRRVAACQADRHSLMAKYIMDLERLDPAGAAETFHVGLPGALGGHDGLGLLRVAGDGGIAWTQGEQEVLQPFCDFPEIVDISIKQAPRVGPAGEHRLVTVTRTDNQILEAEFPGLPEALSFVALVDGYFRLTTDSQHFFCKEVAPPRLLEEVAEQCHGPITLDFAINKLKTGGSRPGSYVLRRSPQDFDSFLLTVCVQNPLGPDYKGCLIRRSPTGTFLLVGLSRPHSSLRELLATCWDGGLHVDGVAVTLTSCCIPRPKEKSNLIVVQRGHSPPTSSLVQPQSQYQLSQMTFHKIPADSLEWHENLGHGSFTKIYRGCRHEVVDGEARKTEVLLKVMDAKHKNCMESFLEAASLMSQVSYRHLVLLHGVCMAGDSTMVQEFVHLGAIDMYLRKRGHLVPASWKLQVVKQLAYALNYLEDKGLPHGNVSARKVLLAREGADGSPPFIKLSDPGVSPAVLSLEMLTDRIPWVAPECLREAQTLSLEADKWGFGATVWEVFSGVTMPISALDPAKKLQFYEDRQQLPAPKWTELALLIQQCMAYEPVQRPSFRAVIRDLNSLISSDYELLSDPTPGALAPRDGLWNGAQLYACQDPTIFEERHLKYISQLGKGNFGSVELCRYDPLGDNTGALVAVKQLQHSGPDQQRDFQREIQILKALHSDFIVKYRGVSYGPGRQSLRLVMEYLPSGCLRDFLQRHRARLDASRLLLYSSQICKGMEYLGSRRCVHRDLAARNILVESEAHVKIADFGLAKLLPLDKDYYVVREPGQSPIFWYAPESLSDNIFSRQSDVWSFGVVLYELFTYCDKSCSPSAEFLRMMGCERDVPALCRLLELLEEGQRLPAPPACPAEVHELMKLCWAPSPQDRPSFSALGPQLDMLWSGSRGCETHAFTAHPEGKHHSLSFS
In short: as §1

[5] = target: JAK2 (Homo sapiens (Human), UniProt O60674); test: Biochemical JAK2 kinase assay (LanthaScreen)
JAK2, sequence (O60674 whole entry): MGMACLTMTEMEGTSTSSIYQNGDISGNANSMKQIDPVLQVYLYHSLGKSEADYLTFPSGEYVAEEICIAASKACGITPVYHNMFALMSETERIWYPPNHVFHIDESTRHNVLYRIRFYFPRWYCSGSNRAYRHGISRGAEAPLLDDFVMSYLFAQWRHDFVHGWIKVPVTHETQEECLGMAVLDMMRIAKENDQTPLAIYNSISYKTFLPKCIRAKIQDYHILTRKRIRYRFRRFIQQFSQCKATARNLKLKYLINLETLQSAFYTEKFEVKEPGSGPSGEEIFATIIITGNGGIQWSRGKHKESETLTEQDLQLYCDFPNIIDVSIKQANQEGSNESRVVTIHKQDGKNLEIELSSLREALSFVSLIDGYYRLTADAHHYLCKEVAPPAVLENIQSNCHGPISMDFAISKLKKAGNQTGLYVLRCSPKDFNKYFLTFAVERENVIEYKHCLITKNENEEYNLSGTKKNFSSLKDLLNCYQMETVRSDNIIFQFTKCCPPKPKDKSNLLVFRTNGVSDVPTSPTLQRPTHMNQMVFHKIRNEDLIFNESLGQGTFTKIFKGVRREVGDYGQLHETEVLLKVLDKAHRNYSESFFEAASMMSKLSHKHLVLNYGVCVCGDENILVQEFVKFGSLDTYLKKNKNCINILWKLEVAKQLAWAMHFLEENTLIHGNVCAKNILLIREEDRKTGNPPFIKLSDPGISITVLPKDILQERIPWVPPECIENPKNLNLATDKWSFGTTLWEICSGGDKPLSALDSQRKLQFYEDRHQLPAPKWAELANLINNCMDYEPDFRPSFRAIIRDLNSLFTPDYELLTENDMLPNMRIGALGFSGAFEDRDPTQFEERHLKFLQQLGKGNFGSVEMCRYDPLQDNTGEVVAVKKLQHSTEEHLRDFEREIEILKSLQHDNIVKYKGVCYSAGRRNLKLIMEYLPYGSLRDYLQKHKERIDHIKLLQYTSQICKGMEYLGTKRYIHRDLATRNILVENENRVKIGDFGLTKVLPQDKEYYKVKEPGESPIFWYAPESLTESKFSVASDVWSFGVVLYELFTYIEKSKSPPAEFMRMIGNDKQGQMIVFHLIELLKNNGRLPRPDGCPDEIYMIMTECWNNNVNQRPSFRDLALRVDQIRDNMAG
In short: as §1

[6] = target: Tyk2 (Homo sapiens (Human), UniProt P29597); test: Biochemical Tyk2 kinase assay (LanthaScreen)
Tyk2, sequence (P29597 whole entry): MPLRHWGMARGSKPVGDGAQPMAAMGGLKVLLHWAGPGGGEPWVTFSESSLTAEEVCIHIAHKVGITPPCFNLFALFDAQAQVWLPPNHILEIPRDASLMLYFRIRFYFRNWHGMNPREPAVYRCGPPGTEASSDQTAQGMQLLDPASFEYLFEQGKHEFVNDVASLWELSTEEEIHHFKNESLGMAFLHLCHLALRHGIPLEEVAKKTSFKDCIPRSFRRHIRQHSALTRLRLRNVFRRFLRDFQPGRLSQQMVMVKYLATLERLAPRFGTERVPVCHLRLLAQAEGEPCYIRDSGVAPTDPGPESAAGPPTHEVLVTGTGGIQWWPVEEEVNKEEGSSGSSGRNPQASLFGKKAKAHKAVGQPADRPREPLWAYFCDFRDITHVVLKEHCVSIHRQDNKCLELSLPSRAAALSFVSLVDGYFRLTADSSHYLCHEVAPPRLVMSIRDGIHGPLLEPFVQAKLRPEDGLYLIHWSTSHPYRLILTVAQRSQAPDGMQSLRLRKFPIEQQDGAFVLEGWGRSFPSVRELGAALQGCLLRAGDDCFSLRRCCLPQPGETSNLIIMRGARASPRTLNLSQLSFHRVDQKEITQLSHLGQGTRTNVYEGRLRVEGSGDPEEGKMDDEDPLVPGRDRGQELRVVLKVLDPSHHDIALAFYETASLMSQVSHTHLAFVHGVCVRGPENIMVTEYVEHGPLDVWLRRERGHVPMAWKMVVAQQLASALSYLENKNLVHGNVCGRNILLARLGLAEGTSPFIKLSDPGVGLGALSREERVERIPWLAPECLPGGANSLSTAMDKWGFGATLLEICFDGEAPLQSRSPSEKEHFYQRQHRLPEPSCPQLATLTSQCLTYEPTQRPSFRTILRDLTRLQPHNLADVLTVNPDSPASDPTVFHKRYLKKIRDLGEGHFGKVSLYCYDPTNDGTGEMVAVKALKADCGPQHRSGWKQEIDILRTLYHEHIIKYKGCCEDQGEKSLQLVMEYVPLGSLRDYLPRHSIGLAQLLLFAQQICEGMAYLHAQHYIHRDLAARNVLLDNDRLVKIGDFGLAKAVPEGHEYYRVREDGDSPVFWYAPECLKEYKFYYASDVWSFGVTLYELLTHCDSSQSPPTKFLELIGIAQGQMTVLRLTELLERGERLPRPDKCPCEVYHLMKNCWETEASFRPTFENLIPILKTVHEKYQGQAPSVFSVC
In short: as §1

Compound | Caco Kp [1] | Tall-1 (pIC50) [2] | JAK 1 (pKi) [3] | JAK 3 (pKi) [4] | JAK3 (pKi)-JAK1 (pKi) [4] | JAK 2 (pKi) [5] | Tyk 2 (pKi) [6]
C=CC(=O)N1CC(CCn2c(=O)ccc3cnc(Nc4ccc(N5CCN(C(C)=O)C[C@H]5C)cc4)nc32)C1 [Example 10, (R)-2-((4-(4-acetyl-2-methylpiperazin-1-yl)phenyl)amino)-8-(2-(1-acryloylazetidin-3-yl)ethyl)pyrido[2,3-d]pyrimidin-7(8H)-one] | A (A represents a value below 5×10^−6 cm/sec) | A (A represents a pIC50 value≥7.5 (IC50≤32 nM)) | E (E represents a pKi value of 7 or below (Ki of 100 nM or above)) | A (A represents a pKi value≥10 (Ki≤0.1 nM)) | A (A represents a value of 3 or above) | E (E represents a pKi value of 7 or below (Ki of 100 nM or above)) | E (E represents a pKi value of 7 or below (Ki of 100 nM or above))
C=CC(=O)N1CC(CCn2c(=O)ccc3cnc(Nc4ccc(N5CCN(C)CC5)cn4)cc32)C1 [Example 14] | A (A represents a value below 5×10^−6 cm/sec) | A (A represents a pIC50 value≥7.5 (IC50≤32 nM)) | E (E represents a pKi value of 7 or below (Ki of 100 nM or above)) | B (B represents pKi value between 9 and 10 (Ki between 1 nM and 0.1 nM)) | A (A represents a value of 3 or above) | E (E represents a pKi value of 7 or below (Ki of 100 nM or above)) | E (E represents a pKi value of 7 or below (Ki of 100 nM or above))
C=CC(=O)N1CCN(CCn2c(=O)ccc3cnc(Nc4cnn(C)c4)nc32)CC1 [Example 16] | A (A represents a value below 5×10^−6 cm/sec) | C (C represents a pIC50 value between 6 and 6.7 (IC50 between 1 μM and 200 nM)) | E (E represents a pKi value of 7 or below (Ki of 100 nM or above)) | B (B represents pKi value between 9 and 10 (Ki between 1 nM and 0.1 nM)) | A (A represents a value of 3 or above) | E (E represents a pKi value of 7 or below (Ki of 100 nM or above)) | E (E represents a pKi value of 7 or below (Ki of 100 nM or above))
C=CC(=O)N1CC(CCn2c(=O)ccc3cnc(Nc4ccccc4)nc32)C1 [Example 18] | C (C represents a value between 10×10^−6 and 30×10^−6 cm/sec) | B (B represents a pC50 value between 6.7 (included) and 7.5 (IC50 between 200 nM and 32 nM)) | E (E represents a pKi value of 7 or below (Ki of 100 nM or above)) | A (A represents a pKi value≥10 (Ki≤0.1 nM)) | A (A represents a value of 3 or above) | E (E represents a pKi value of 7 or below (Ki of 100 nM or above)) | E (E represents a pKi value of 7 or below (Ki of 100 nM or above))
C=CC(=O)N1CC(CCn2c(=O)ccc3cnc(Nc4cccc(OC)c4)nc32)C1 [Example 19] | C (C represents a value between 10×10^−6 and 30×10^−6 cm/sec) | C (C represents a pIC50 value between 6 and 6.7 (IC50 between 1 μM and 200 nM)) | E (E represents a pKi value of 7 or below (Ki of 100 nM or above)) | B (B represents pKi value between 9 and 10 (Ki between 1 nM and 0.1 nM)) | A (A represents a value of 3 or above) | E (E represents a pKi value of 7 or below (Ki of 100 nM or above)) | E (E represents a pKi value of 7 or below (Ki of 100 nM or above))
C=CC(=O)N1CC(CCn2c(=O)ccc3cnc(Nc4cnn(CCOC(F)F)c4)nc32)C1 [Example 25] | B (B represents a value between 5×10^−6 and 10×10^−6 cm/sec) | C (C represents a pIC50 value between 6 and 6.7 (IC50 between 1 μM and 200 nM)) | E (E represents a pKi value of 7 or below (Ki of 100 nM or above)) | B (B represents pKi value between 9 and 10 (Ki between 1 nM and 0.1 nM)) | A (A represents a value of 3 or above) | E (E represents a pKi value of 7 or below (Ki of 100 nM or above)) | E (E represents a pKi value of 7 or below (Ki of 100 nM or above))
C=CC(=O)N1CCN(CCn2c(=O)ccc3cnc(Nc4cnn(C)c4)nc32)[C@@H](C)C1 [Example 30] | A (A represents a value below 5×10^−6 cm/sec) | B (B represents a pC50 value between 6.7 (included) and 7.5 (IC50 between 200 nM and 32 nM)) | E (E represents a pKi value of 7 or below (Ki of 100 nM or above)) | A (A represents a pKi value≥10 (Ki≤0.1 nM)) | A (A represents a value of 3 or above) | E (E represents a pKi value of 7 or below (Ki of 100 nM or above)) | E (E represents a pKi value of 7 or below (Ki of 100 nM or above))
C=CC(=O)N1CCN(CCn2c(=O)ccc3cnc(Nc4cnn(C)c4)nc32)CC12CC2 [Example 32] | B (B represents a value between 5×10^−6 and 10×10^−6 cm/sec) | B (B represents a pC50 value between 6.7 (included) and 7.5 (IC50 between 200 nM and 32 nM)) | E (E represents a pKi value of 7 or below (Ki of 100 nM or above)) | B (B represents pKi value between 9 and 10 (Ki between 1 nM and 0.1 nM)) | A (A represents a value of 3 or above) | E (E represents a pKi value of 7 or below (Ki of 100 nM or above)) | E (E represents a pKi value of 7 or below (Ki of 100 nM or above))
C=CC(=O)N1CC(CCn2c(=O)ccc3cnc(Nc4cnn(C5CCN(C)CC5)c4)nc32)C1 [Example 51] | A (A represents a value below 5×10^−6 cm/sec) | B (B represents a pC50 value between 6.7 (included) and 7.5 (IC50 between 200 nM and 32 nM)) | E (E represents a pKi value of 7 or below (Ki of 100 nM or above)) | B (B represents pKi value between 9 and 10 (Ki between 1 nM and 0.1 nM)) | A (A represents a value of 3 or above) | E (E represents a pKi value of 7 or below (Ki of 100 nM or above)) | E (E represents a pKi value of 7 or below (Ki of 100 nM or above))
C=CC(=O)N1CC(CCn2c(=O)ccc3cnc(Nc4cnn(CCN(CC)CC)c4)nc32)C1 [Example 55] | A (A represents a value below 5×10^−6 cm/sec) | B (B represents a pC50 value between 6.7 (included) and 7.5 (IC50 between 200 nM and 32 nM)) | E (E represents a pKi value of 7 or below (Ki of 100 nM or above)) | B (B represents pKi value between 9 and 10 (Ki between 1 nM and 0.1 nM)) | A (A represents a value of 3 or above) | E (E represents a pKi value of 7 or below (Ki of 100 nM or above)) | E (E represents a pKi value of 7 or below (Ki of 100 nM or above))
C=CC(=O)N1CC(CCn2c(=O)ccc3cnc(Nc4ccc5c(c4)oc(=O)n5C)nc32)C1 [Example 60] | B (B represents a value between 5×10^−6 and 10×10^−6 cm/sec) | B (B represents a pC50 value between 6.7 (included) and 7.5 (IC50 between 200 nM and 32 nM)) | E (E represents a pKi value of 7 or below (Ki of 100 nM or above)) | B (B represents pKi value between 9 and 10 (Ki between 1 nM and 0.1 nM)) | A (A represents a value of 3 or above) | E (E represents a pKi value of 7 or below (Ki of 100 nM or above)) | E (E represents a pKi value of 7 or below (Ki of 100 nM or above))
